# According to patent EP4667463A1, “DOMIDE MOLECULAR GLUE DERIVATIVE AND USE THEREOF” (CSPC Megalith Biopharmaceutical Co., Ltd., priority 2023, dated 2024):
# Where two headings read alike, the source gives them in different places.
# Tests used:
# HL-60 = experiment: In vitro anti-tumor activity of molecular glue compounds, CellTiter-Lumi cell viability assay; assay type: cell-based; conditions: Homo sapiens; HL-60 cells, 96 h incubation; read-out: Cell inhibitory activity (IC50 values) HL-60
# Procedure: (§1) Different tumor cells were all commercially available and used for evaluating the anti-tumor inhibitory activity of the compounds of the present disclosure. Various tumor cells were cultured until the cell confluency reached 80%-90%, with cell viability above 90% as determined by trypan blue exclusion. Then, the cells were plated. Specifically, after cell density optimization, 100 µL of each of the cell suspensions of HL-60 and SK-BR-3 cells (cell density: 3000 cells/well), Romas cells (cell density: 6000 cells/well), NCI-H929 cells (cell density: 4000 cells/well), and NCI-H82 cells (cell density: 5000 cells/well) was plated in a BeyoGold™ ultra-low attachment black clear-bottom 96-well plate (Cat. No.: FULA965-24pcs), and the plate was incubated overnight. The next day, after the adherent cells were adhered to the wall and suspension cells requiring aggregation were aggregated, 50 µL of culture medium was aspirated from each well of the 96-well plate. Then, the compounds diluted with the corresponding culture media were added. Specifically, the compounds were serially diluted at a 5-fold gradient starting from the highest concentration of 1 µM, with a final DMSO concentration of 1%o, and the test compounds were then added to the cell culture plate. The plate was incubated in an incubator at 37 °C with 5% carbon dioxide for 96 h. Before measurement, the CellTiter-Lumi™ luminescent cell viability assay reagent was equilibrated to room temperature in the dark. Then, 50 µL of the CellTiter-Lumi™ (Cat. No.: C0065XL) cell viability assay reagent was added to each well of the 96-well plate. The plate was shaken in the dark on a shaker at 300 rpm for 10 min to ensure complete cell lysis. After the reaction was completed, the luminescence was measured on a multi-mode microplate reader. The cell inhibition rate was determined according to the luminescence. Then, a cell viability curve was generated by Graphpad Prism 8.0, and the IC50 values were calculated. The compounds of the present disclosure were tested for activity by the method described above. Table 1. Cell inhibitory activity (IC50 values)
# NCI-H82 = experiment: as above; assay type: cell-based; conditions: Homo sapiens; NCI-H82 cells, 96 h incubation; read-out: Cell inhibitory activity (IC50 values) NCI-H82
# Procedure: as §1
# NCI-H929 = experiment: as above; assay type: cell-based; conditions: Homo sapiens; NCI-H929 cells, 96 h incubation; read-out: Cell inhibitory activity (IC50 values) NCI-H929
# Procedure: as §1
# Romas = experiment: as above; assay type: cell-based; conditions: Romas cells, 96 h incubation; read-out: Cell inhibitory activity (IC50 values) Romas
# Procedure: as §1
# SK-BR-3 = experiment: as above; assay type: cell-based; conditions: Homo sapiens, SK-BR-3 cells
# Procedure: as §1
# GSPT1 protein = biological target: T1, GSPT1 protein (Homo sapiens, UniProt P15170+Q96SW2); experiment: GSPT1 protein degradation, Nano-Glo HiBiT assay in HiBiT-GSPT1 HEK293T cells; assay type: cell-based; conditions: 24 h
# T1 construct: An HiBiT protein tag was added to the N-terminus of the endogenous GSPT1 protein of HEK293T cells by CRISPR gene editing technology; endogenous in cells; host or cells: HEK293T (CRISPR knock-in HiBiT-GSPT1 cell strain)
# Procedure: This experiment was performed to evaluate the targeting property of the compounds. An HiBiT protein tag was added to the N-terminus of the endogenous GSPT1 protein of HEK293T cells by CRISPR gene editing technology, so as to construct a HiBiT-GSPT1 HEK293T stably transfected cell strain. HiBiT-GSPT1 HEK293T cells were cultured in DMEM containing 10% FBS and 1% PenStrep. When the cell confluency reached 80%-90%, the cells were digested with trypsin, pipetted into single cells, and resuspended in a corresponding culture medium to form a cell suspension. The cells were counted using Cell Countess (NanoEnTek, #Cat. EVE-MC2), and the cell viability was determined by trypan blue exclusion to ensure that the cell viability was above 90%. The cells were plated in a 384-well plate (Corning, #Cat. 3764) at 10,000 cells/40 µL of cell suspension per well, and cultured in an incubator at 37 °C with 5% CO2 overnight. The next day, the test compounds were added to the 384-well plate under conditions of 30 µM highest concentration, 5-fold serial dilution, and 1‰ DMSO. The plate was incubated in the incubator at 37 °C with 5% CO2 for another 24 h. Before measurement, the Nano-Glo HiBiT reagent was equilibrated to room temperature, the LgBiT protein was diluted with the Nano-Glo HiBiT Lytic buffer according to a dilution ratio of 1:100, and the Nano-Glo@HiBiT Lytic substrate was diluted to an appropriate volume according to a ratio of 1:50. After the cell culture plate was equilibrated at room temperature for 10 min, 40 µL of Nano-Glo HiBiT Lytic assay reagent was added to each well. The plate was shaken on a microplate shaker at a rotation speed of 300 rpm for 3 min in the dark. After the reaction was completed, the luminescencevalues were read on BMG PHERASTAR FS (BMG LRBTECH, Cat. No.: PHERAstar FSX), and the DC50 values were calculated using GraphPad Prism 8.0. Table 2. GSPT1 protein degradation
# in vitro [1] = conditions: human, liver microsomes
# Procedure: (§2) The final concentration of the substrate in the incubation system was 1 µM, and the incubation time was 60 min. Sampling was performed at 0 min, 5 min, 15 min, 30 min, and 60 min. The reaction was stopped with glacial acetonitrile containing an internal standard (testosterone-d3 at a concentration of 10 ng/mL). Verapamil was used as a positive control. […] The natural logarithm of the remaining percentage was subjected to linear fitting with time to determine the elimination rate constant (k).
# in vitro [2] = conditions: monkey, liver microsomes
# in vitro [3] = conditions: rat, liver microsomes
# Procedure: as §2
# [4] = Metabolic stability in liver microsomes; conditions: Human liver microsomes, after 60 min of incubation
# Procedure: as §2
# [5] = Metabolic stability in liver microsomes; conditions: Dog liver microsomes, after 60 min of incubation
# Procedure: as §2
# [6] = Metabolic stability in liver microsomes; conditions: Rat liver microsomes, after 60 min of incubation
# Procedure: as §2
# [7] = Metabolic stability in liver microsomes; conditions: Mouse liver microsomes, after 60 min of incubation
# Procedure: as §2
# T1 sequence (P15170 whole entry): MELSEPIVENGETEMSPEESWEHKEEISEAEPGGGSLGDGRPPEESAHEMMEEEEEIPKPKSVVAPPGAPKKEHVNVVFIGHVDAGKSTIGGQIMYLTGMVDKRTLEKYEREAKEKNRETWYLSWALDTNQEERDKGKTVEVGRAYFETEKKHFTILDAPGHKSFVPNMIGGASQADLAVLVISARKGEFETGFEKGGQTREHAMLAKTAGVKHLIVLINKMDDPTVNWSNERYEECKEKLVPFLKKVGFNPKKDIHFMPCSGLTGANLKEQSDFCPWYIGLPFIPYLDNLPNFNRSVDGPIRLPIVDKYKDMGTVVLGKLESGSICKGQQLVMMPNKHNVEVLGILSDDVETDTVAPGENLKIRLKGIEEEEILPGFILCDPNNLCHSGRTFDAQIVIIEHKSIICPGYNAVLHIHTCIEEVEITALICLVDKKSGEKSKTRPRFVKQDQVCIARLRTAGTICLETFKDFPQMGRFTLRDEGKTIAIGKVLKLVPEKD
# T1 sequence (Q96SW2 whole entry): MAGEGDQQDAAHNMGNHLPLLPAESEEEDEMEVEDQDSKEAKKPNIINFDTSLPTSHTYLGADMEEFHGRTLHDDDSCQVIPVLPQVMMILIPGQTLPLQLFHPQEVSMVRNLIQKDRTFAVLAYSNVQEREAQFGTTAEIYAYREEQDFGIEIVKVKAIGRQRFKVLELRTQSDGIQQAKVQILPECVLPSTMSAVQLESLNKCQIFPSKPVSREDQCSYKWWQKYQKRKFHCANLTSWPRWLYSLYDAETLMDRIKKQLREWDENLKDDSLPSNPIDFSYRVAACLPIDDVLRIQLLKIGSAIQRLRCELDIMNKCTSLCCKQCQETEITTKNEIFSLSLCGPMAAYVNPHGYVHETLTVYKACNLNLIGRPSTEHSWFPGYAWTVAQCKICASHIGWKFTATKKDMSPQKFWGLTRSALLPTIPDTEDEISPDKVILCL
# T1 sequence (Q16531 whole entry partner): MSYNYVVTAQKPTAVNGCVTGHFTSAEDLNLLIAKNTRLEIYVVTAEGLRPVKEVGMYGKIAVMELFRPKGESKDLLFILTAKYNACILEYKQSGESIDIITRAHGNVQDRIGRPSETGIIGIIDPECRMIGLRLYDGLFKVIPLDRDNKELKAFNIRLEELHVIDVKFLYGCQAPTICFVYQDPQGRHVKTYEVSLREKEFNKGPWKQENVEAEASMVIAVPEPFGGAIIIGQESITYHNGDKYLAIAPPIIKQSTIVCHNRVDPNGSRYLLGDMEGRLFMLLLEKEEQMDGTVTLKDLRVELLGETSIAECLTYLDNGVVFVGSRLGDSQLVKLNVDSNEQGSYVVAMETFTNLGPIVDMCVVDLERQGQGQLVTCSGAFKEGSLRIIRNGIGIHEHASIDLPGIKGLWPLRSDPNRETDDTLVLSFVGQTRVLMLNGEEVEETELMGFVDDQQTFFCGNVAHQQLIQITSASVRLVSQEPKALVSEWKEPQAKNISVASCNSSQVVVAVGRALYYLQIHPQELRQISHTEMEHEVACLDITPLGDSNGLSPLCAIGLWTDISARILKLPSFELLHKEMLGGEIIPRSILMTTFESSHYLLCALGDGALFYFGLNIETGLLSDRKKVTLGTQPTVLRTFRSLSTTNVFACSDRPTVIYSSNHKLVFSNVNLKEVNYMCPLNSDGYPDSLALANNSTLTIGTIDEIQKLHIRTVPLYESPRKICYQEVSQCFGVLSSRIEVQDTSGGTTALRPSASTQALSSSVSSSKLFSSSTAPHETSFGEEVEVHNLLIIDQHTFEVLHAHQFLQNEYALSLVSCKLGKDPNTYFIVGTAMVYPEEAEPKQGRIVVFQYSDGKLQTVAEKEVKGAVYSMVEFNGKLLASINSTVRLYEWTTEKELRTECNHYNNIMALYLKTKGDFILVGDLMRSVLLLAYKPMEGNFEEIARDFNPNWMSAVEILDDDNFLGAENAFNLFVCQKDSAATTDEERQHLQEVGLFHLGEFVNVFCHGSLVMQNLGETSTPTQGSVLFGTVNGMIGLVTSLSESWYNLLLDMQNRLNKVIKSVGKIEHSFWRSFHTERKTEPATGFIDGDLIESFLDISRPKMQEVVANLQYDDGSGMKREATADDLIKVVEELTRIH
compound,measurement,setting,value
O=C1CCC(N2Cc3cc(CNC(=O)Nc4ccc(CCCOC5CCCNC5)c(Cl)c4)ccc3C2=O)C(=O)N1 (centres unmarked) [Compound B19],IC50,HL-60,< 10 nM
same,IC50,NCI-H82,10 to 50 nM
same,IC50,NCI-H929,< 10 nM
same,IC50,Romas,< 10 nM
same,IC50,"SK-BR-3; 96 h incubation, read-out: Cell inhibitory activity (IC50 values) SK-BR-3",< 10 nM
same,IC50,SK-BR-3; read-out: SK-BR-3 IC50,3.62 nM
same,DC50,GSPT1 protein,66.2 nM
same,CLint scaled at 1 µM,in vitro [1],5.8 mL/min/kg
same,half-life at 1 µM,in vitro [1],5 h
same,CLint scaled at 1 µM,in vitro [2],11.3 mL/min/kg
same,half-life at 1 µM,in vitro [2],3 h
same,CLint scaled at 1 µM,in vitro [3],6.55 mL/min/kg
same,half-life at 1 µM,in vitro [3],6.32 h
same,Parent drug remaining %,[4],80.5%
same,Parent drug remaining %,[5],118%
same,Parent drug remaining %,[6],88.1%
same,Parent drug remaining %,[7],92.8%
